Results: US20100152141A1, “COMBINATIONS COMPRISING 5HT6 MODULATORS AND CHOLINESTERASE INHIBITORS” (EPIX DELAWARE, INC, priority 2006, published 2010)

Columns and labels:
[1] = system: adult male Lister hooded rats; assay: novel object discrimination (NOD) task, natural forgetting with 4 h inter-trial interval; assay type: in vivo, rat
Experimental: NOD testing was performed as described by King et al. (2004 Neuropharmacol. 47 195), and used five separate groups (n=12) of adult male Lister hooded rats (145-235 g). Within each group rats were tested on 3-4 occasions (at one-week intervals) to receive all possible treatment combinations and serve as their own controls.

5-HT6 receptor = 5-HT6 receptor (Homo sapiens, UniProt P50406); assay: 5-HT6 receptor affinity (Ki) of Compound A; assay type: binding
Chain of 5-HT6 receptor (P50406 whole entry): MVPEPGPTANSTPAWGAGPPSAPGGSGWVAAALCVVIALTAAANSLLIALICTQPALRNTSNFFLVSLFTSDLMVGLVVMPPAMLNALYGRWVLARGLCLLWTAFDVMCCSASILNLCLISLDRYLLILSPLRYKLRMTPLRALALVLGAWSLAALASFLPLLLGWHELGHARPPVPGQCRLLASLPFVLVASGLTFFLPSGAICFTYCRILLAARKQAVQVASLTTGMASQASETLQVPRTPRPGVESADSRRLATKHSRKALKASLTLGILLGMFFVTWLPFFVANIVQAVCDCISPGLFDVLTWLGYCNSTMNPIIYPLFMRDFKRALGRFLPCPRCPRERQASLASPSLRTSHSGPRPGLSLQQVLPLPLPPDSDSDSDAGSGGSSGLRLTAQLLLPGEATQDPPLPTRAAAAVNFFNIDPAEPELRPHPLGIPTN

Structure (SMILES)	natural forgetting (discrimination of novel versus familiar object) ([1]; Aricept 0.1 mg/kg i.p., 20 min pre-treatment, 4 h inter-trial interval)	natural forgetting (discrimination of novel versus familiar object) ([1]; Aricept 0.3 mg/kg i.p., 20 min pre-treatment, 4 h inter-trial interval)	discrimination ratio versus vehicle ([1]; Aricept 1 mg/kg i.p., 20 min pre-treatment)	natural forgetting (discrimination of novel versus familiar object) ([1]; Aricept 1 mg/kg i.p., 20 min pre-treatment, 4 h inter-trial interval, novel versus familiar p<0.001)	natural forgetting (discrimination of novel versus familiar object) ([1]; Compound A 0.3 mg/kg i.p. combined with sub-efficacious dose (0.1 mg/kg i.p.) of Aricept, novel versus familiar p<0.01)	natural forgetting (discrimination of novel versus familiar object) ([1]; Compound A 0.3 mg/kg i.p. given alone)	natural forgetting (discrimination of novel versus familiar object) ([1]; Compound A 1 mg/kg i.p. combined with sub-efficacious dose (0.1 mg/kg i.p.) of Aricept, novel versus familiar p<0.05)	natural forgetting (discrimination of novel versus familiar object) ([1]; Compound A 1 mg/kg i.p. given alone)	natural forgetting (discrimination of novel versus familiar object) ([1]; Compound A 3 mg/kg i.p., 40 min pre-treatment, 4 h inter-trial interval, novel versus familiar p<0.001)	discrimination ratio versus vehicle ([1]; Compound A 3 mg/kg i.p., 40 min pre-treatment, p<0.05 repeated measures ANOVA)	natural forgetting (discrimination of novel versus familiar object) ([1]; Compound A 10 mg/kg i.p., 40 min pre-treatment, 4 h inter-trial interval, novel versus familiar p<0.01)	discrimination ratio versus vehicle ([1]; Compound A 10 mg/kg i.p., 40 min pre-treatment, p<0.05 repeated measures ANOVA)	Ki (5-HT6 receptor)
COc1cc2c(cc1OC)C(=O)C(CC1CCN(Cc3ccccc3)CC1)C2 (stereo not shown) [Aricept, donepezil, reference compound]	lacked effect	lacked effect	without significantly increasing the discrimination ratio	prevented natural forgetting	–	–	–	–	–	–	–	–	–
COc1cc(Cl)cc(C(C)Nc2cc(N3CCNCC3)ccc2S(C)(=O)=O)c1OC.Cl (stereo not shown) [Compound A, [1-(5-Chloro-2,3-dimethoxy-phenyl)-ethyl]-(2-methanesulfonyl-5-piperazin-1-yl-phenyl)-amine hydrochloride]	–	–	–	–	restored discrimination	lacked significant effect	restored discrimination	lacked significant effect	prevented this natural forgetting	increased the discrimination ratio from vehicle levels	prevented this natural forgetting	increased the discrimination ratio from vehicle levels	4 nM
